Data: ChEMBL document CHEMBL5543155, “Design, Synthesis, and Biological Evaluation of β-Trifluoroethoxydimethyl Selenides as Potent Antiosteoporosis Agents” (J Med Chem, 2024)
Activity calls are given as the source filed them. The rule behind the calls is not given here.

Tests used:
[1] = system: RAW264.7; experiment: Inhibition of RANKL-induced osteoclast differentiation in mouse RAW264.7 cells at 5 uM incubated for 4 days with media replacement for every 2 days by TRAP-staining based light microscopic analysis; type: functional, cell-based; settings: time 4.0 day
[2] = system: RAW264.7; experiment: Cytotoxicity against mouse RAW264.7 cells assessed as cell destruction at 5 uM incubated for 48 hrs by MTT assay; type: toxicity, cell-based; settings: raw264.7, 48 h

| SMILES | inhibition [1] | Activity [2] |
| --- | --- | --- |
| Cc1cc(Cl)ccc1NC(=O)C([Se]c1ccccc1)C(C)(C)OCC(F)(F)F (configuration not stated) | Active | Non-Toxic |
| CC(C)(OCC(F)(F)F)C([Se]c1ccccc1)C(=O)Nc1ccccc1 (configuration not stated) | – | Non-Toxic |
| CC(C)(OCC(F)(F)F)C([Se]c1ccc(Br)cc1)C(=O)Nc1ccccc1 (configuration not stated) | Active | Non-Toxic |
| CC(C)(OCC(F)(F)F)C([Se]c1ccccc1)C(=O)NC1CCCCC1 (configuration not stated) | Active | Non-Toxic |
| CC(C)(OCC(F)(F)F)C([Se]c1ccccc1F)C(=O)Nc1ccccc1 (configuration not stated) | Active | Non-Toxic |
| CC(C)(OCC(F)(F)F)C([Se]c1ccccc1)C(=O)Nc1ccccn1 (configuration not stated) | – | Non-Toxic |
| COc1ccc([Se]C(C(=O)Nc2ccccc2)C(C)(C)OCC(F)(F)F)cc1 (configuration not stated) | Active | Non-Toxic |
| Cc1cc(NC(=O)C([Se]c2ccccc2)C(C)(C)OCC(F)(F)F)ccn1 (configuration not stated) | – | Non-Toxic |
| CCCC[Se]C(C(=O)Nc1ccccc1)C(C)(C)OCC(F)(F)F (configuration not stated) | Active | Non-Toxic |
| CC(C)(OCC(F)(F)F)C([Se]c1ccccc1Br)C(=O)Nc1ccccc1 (configuration not stated) | Active | Non-Toxic |
| COc1ccccc1[Se]C(C(=O)Nc1ccccc1)C(C)(C)OCC(F)(F)F (configuration not stated) | Active | Non-Toxic |
| CC(C)(OCC(F)(F)F)C([Se]c1ccccc1Cl)C(=O)Nc1ccccc1 (configuration not stated) | Active | Non-Toxic |
| CC(C)(OCC(F)(F)F)C([Se]c1ccccc1)C(=O)Nc1ccnc(F)c1 (configuration not stated) | – | Non-Toxic |
| COc1ccc(NC(=O)C([Se]c2ccccc2)C(C)(C)OCC(F)(F)F)cc1 (configuration not stated) | Active | Non-Toxic |
| CC(C)(OCC(F)(F)F)C([Se]c1ccccc1)C(=O)Nc1cccnc1 (configuration not stated) | – | Non-Toxic |
| CC(C)(OCC(F)(F)F)C([Se]c1ccc(F)cc1)C(=O)Nc1ccncc1 (configuration not stated) | – | Non-Toxic |
| COc1cc(NC(=O)C([Se]c2ccccc2)C(C)(C)OCC(F)(F)F)ccn1 (configuration not stated) | – | Non-Toxic |
| COc1ncccc1[Se]C(C(=O)Nc1ccccc1)C(C)(C)OCC(F)(F)F (configuration not stated) | Active | Non-Toxic |
| CCOC(C)(C)C([Se]c1ccccc1)C(=O)Nc1ccccc1 (configuration not stated) | – | Non-Toxic |

| SMILES | inhibition [1] | Activity [2] |
| --- | --- | --- |
| CC(C)(OCC(F)(F)F)C([Se]c1ccccc1)C(=O)Nc1ccccc1F (configuration not stated) | – | Non-Toxic |
| CC(C)(OCC(F)(F)F)C([Se]c1ccccc1)C(=O)Nc1ccnc(Cl)c1 (configuration not stated) | – | Non-Toxic |
| Cc1ccccc1NC(=O)C([Se]c1ccccc1)C(C)(C)OCC(F)(F)F (configuration not stated) | Active | Non-Toxic |
| COc1ccc([Se]C(C(=O)Nc2ccncc2)C(C)(C)OCC(F)(F)F)cc1 (configuration not stated) | – | Non-Toxic |
| Cc1cccc([Se]C(C(=O)Nc2ccccc2)C(C)(C)OCC(F)(F)F)c1 (configuration not stated) | Active | Non-Toxic |
| CC(C)(OCC(F)(F)F)C([Se]c1cccc(F)c1)C(=O)Nc1ccccc1 (configuration not stated) | Active | Non-Toxic |
| CC(C)(OCC(F)(F)F)C([Se]c1ccccc1)C(=O)Nc1cccc(Cl)c1 (configuration not stated) | Active | Non-Toxic |
| CC(C)(OCC(F)(F)F)C([Se]c1ccccc1)C(=O)Nc1ccc(Br)cc1 (configuration not stated) | Active | Non-Toxic |
| CC(C)(OCC(F)(F)F)C([Se]c1ccc2c(c1)OCO2)C(=O)Nc1ccccc1 (configuration not stated) | Active | Non-Toxic |
| CC(C)(OCC(F)(F)F)C([Se]c1cccc(Br)c1)C(=O)Nc1ccccc1 (configuration not stated) | Active | Non-Toxic |
| CC(C)(OCC(F)(F)F)C([Se]c1ccc(F)cc1)C(=O)Nc1ccccc1 (configuration not stated) | Active | Non-Toxic |
| CC(C)(OCC(F)(F)F)C([Se]c1ccccc1)C(=O)Nc1cnc2ccccc2c1 (configuration not stated) | Active | Non-Toxic |
| Cc1ccccc1[Se]C(C(=O)Nc1ccccc1)C(C)(C)OCC(F)(F)F (configuration not stated) | – | Non-Toxic |
| Cc1ccc([Se]C(C(=O)Nc2ccccc2)C(C)(C)OCC(F)(F)F)cc1 (configuration not stated) | Active | Non-Toxic |
| CC(C)(OCC(F)(F)F)C([Se]c1ccccc1)C(=O)Nc1ccnc(Br)c1 (configuration not stated) | – | Non-Toxic |
| CC(C)(OCC(F)(F)F)C([Se]c1ccccc1)C(=O)Nc1ccc(I)cc1 (configuration not stated) | Active | Non-Toxic |
| Cc1cnccc1NC(=O)C([Se]c1ccccc1)C(C)(C)OCC(F)(F)F (configuration not stated) | – | Non-Toxic |
| COc1ccccc1NC(=O)C([Se]c1ccccc1)C(C)(C)OCC(F)(F)F (configuration not stated) | Active | Non-Toxic |
| CC(C)(OCC(F)(F)F)C([Se]c1ccccc1)C(=O)Nc1cccc(F)c1 (configuration not stated) | Active | Non-Toxic |
